Results: patent US8829203B2, “3′,6-substituted indirubins and their biological applications” (Centre National de la Recherche Scientifique (CNRS), priority 2008, dated 2014)

Assays:
CDK5/p25 = CDK5/p25 (Homo sapiens, UniProt Q00535); test: CDK5/p25 kinase assay (histone H1, 15 μM ATP); assay type: biochemical; settings: 30° C., 30 min
Description: (§1) Blank values were subtracted and activities calculated as pmoles of phosphate incorporated during a […] incubation. The activities were expressed in % of the maximal activity, i.e. in the absence of inhibitors. Controls were performed with appropriate dilutions of dimethylsulfoxide. Phosphorylation of the substrate was assessed by the P81 phosphocellulose assay.
CDK5/p25 was reconstituted by mixing equal amounts of recombinant human CDK5 and p25 expressed in E. coli as GST (Glutathione-S-transferase) fusion proteins and purified by affinity chromatography on glutathione-agarose (p25 is a truncated version of p35, the 35 kDa CDK5 activator). Its activity was assayed with histone H1 in buffer C as described for CDK1/cyclin B.

[1] = tested on: Per2 promoter (PPer2) activity, Rat-1 fibroblasts; test: Luminescence assay of circadian rhythmicity, Rat-1 fibroblasts PPer2::Fluc; assay type: cell-based; settings: 10 μM, left continuously, monitored 4 days
Description: FIGS. 3a and 3b: the alteration of the circadian period in mammalian fibroblasts by the indirubin derivatives. Rat-1 fibroblasts stably transfected with a PPer2::Fluc reporter construct show a robust circadian rhythm of luminescence as a gauge of clock-controlled Per2 promoter (PPer2) activity. Cells were cultured up to 100% confluence and treated for 2 h with 0.1 μM dexamethasone to synchronize the oscillators. The medium was then replaced with assay medium supplemented with 0.1 mM luciferin and the luminescence rhythm was monitored for 4 days or more. Compounds were added to the culture dishes at 10 μM and left continuously. DMSO was used as a solvent control. Regression analyses were used to determine period and phase of the luminescence rhythms. 3a. Time-course of a typical luminescence rhythm recorded in control cells (◯) or cells treated with indirubin 15 (•). White arrows indicate the peaks of luminescence in control cells, black arrows indicate the peaks of luminescence in indirubin 15 treated cells. 3b. Period lengths calculated in cells exposed to various compounds. C, control; K, kenpaullone.
The cells were cultured in DMEM (11965-092, GIBCO/Invitrogen) supplemented with 5% FBS, 50 units/ml penicillin, and 50 μg/ml streptomycin in a 5% CO2 incubator at 37° C. […] The luminescence rhythm was monitored in a LumiCycle (Actimetrics Inc., Evanston, Ill., USA). […]

GSK-3α/β = GSK-3α/β kinase assay (GS-1 substrate, 15 μM ATP); assay type: biochemical, porcine; settings: 30° C., 30 min, read-out: GSK3 IC50
Description: as §1
GSK-3α/β was purified from porcine brain by affinity chromatography on immobilized axin^5. […] ATP (3,000 Ci/mmol; 10 mCi/ml) in a final volume of 30 μl. After 30 min. incubation at 30° C., 25 μl aliquots of supernatant were processed as described above.

CDK1/cyclin B = CDK1/cyclin B kinase assay (histone H1, 15 μM ATP); assay type: biochemical, starfish (Marthasterias glacialis); settings: 30° C., 30 min

Sequence of CDK5/p25 (Q00535 whole entry): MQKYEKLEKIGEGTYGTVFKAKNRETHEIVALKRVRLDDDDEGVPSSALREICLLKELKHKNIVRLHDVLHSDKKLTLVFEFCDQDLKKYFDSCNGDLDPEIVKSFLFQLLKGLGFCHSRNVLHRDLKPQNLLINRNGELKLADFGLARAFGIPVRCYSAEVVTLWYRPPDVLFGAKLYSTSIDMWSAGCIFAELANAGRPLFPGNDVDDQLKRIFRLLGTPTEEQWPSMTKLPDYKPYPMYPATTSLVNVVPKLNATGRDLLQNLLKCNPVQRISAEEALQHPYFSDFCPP
Sequence of CDK5/p25 (Q15078 99-307 partner limits assumed): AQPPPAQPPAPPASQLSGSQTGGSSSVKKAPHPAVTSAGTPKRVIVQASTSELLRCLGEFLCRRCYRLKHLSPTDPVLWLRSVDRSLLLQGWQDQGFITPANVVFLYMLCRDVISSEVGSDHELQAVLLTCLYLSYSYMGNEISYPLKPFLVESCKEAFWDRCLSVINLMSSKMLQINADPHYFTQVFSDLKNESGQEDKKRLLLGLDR

IC50 (CDK5/p25): 310 nM
IC50 (GSK-3α/β): 14 nM
IC50 (CDK1/cyclin B): 900 nM
Compound: O=C1Nc2cc(Br)ccc2/C1=C1/Nc2ccccc2/C1=N\OCCN1CCN(CCOCCO)CC1 [Cpd 15, (2′Z-3′E)-6-Bromoindirubin-3′-[O-(2-{4-[2-(2-hydroxyethoxy)-ethyl]piperazin-1-yl}ethyl)oxime]]
Circadian period length of luminescence rhythm [1]: gradual shortening of the period length
